Experimental data from patent US20260356804A1, “SODIUM CHANNEL BLOCKING COMPOUNDS, DERIVATIVES THEREOF, AND METHODS OF THEIR USE” (LATIGO BIOTHERAPEUTICS, INC., priority 2022, published 2026).
Read-outs that look alike come from different tables or passages of the source.

Target: T1, human Nav1.8/b3 (Homo sapiens, UniProt Q9Y5Y9)
T1 construct: expressed in transfected cells; host or cells: CHO
Assay: Compound Profiling Human NaV1.8/β3 Cell Line—SyncroPatch384PE Assay (automated patch clamp, stably transfected CHO cells)
Type: cell-based
Settings: Nav1.8/b3 CHO cells

[1] = P1 (IC50, resting state block), P1 measurement, resting state block, holding potential −120 mV, first set of compounds
[2] = P2 (IC50, inactivated state block), P2 measurement, inactivated state block, inactivation step −35 mV 10 sec, first set of compounds
[3] = P1 (IC50, resting state block), P1 measurement, resting state block, holding potential −120 mV, third set of compounds
[4] = P2 (IC50, inactivated state block), P2 measurement, inactivated state block, inactivation step −35 mV 10 sec, third set of compounds
[5] = P1 measurement, resting state block, holding potential −120 mV, third set of compounds, read-out: P1 (IC50, resting state block)
[6] = P2 measurement, inactivated state block, inactivation step −35 mV 10 sec, third set of compounds, read-out: P2 (IC50, inactivated state block)

T1 sequence (Q9Y5Y9 whole entry): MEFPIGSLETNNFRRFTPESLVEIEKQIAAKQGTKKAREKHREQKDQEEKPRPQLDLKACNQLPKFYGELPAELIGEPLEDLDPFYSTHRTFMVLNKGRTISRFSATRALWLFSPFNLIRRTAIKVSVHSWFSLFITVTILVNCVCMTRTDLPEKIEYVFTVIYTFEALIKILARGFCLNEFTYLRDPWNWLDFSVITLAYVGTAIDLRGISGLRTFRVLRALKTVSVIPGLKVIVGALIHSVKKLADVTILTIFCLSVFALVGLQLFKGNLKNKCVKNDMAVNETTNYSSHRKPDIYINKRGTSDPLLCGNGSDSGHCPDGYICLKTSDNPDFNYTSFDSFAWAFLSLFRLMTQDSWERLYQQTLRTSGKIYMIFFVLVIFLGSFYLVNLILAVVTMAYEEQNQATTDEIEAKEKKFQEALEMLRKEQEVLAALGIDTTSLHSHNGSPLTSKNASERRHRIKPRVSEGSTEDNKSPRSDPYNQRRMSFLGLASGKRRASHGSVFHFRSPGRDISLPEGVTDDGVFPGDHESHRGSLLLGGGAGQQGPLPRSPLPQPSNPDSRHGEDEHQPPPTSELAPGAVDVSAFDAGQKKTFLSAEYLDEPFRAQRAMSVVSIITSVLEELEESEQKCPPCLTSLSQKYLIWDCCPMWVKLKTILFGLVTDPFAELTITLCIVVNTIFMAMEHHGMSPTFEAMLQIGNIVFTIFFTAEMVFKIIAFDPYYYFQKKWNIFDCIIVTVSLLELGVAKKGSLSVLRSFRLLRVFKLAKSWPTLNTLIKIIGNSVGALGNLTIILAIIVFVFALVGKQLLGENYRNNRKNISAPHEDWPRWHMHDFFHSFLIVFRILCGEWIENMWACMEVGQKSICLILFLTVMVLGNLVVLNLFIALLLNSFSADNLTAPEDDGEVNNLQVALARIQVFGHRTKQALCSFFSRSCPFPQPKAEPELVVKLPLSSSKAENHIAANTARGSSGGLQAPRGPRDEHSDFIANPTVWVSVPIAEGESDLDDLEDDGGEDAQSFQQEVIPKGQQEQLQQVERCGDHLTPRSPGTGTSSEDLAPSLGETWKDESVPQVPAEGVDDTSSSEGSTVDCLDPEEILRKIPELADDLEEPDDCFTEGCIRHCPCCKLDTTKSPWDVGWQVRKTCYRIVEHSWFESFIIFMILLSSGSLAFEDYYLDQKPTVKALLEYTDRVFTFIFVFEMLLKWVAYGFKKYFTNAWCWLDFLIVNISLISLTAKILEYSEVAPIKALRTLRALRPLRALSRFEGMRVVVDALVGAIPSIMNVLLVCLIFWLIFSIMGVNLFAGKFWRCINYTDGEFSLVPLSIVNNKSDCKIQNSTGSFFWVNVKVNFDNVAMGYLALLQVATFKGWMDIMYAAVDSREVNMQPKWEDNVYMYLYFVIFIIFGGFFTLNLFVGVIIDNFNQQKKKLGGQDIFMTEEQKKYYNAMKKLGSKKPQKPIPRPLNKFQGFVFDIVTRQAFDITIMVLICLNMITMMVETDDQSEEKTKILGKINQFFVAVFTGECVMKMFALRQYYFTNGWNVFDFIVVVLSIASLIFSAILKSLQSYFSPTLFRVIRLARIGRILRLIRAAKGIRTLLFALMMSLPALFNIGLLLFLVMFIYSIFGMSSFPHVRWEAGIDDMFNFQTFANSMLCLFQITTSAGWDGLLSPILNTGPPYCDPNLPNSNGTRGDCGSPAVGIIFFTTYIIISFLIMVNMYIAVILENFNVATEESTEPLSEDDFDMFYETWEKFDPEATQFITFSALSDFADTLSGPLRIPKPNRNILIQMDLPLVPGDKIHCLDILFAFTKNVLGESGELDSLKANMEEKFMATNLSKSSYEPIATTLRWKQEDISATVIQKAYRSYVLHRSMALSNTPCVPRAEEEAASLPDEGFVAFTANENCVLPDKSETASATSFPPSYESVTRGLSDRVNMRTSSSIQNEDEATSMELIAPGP
T1 sequence (Q9NY72 23-215 partner): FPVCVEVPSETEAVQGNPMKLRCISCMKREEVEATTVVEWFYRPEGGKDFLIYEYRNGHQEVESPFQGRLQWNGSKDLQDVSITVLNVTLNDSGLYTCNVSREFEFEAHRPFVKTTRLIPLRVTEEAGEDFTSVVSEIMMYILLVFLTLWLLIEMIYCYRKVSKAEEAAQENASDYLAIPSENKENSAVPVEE

An IC50 [1] of less than 5 nM and an IC50 [2] of less than 5 nM were found for `Cc1nc(F)ccc1Oc1cc(C(F)(F)F)c(Cl)cc1C(=O)Nc1ccc(F)c([S@](C)(=N)=O)c1` [Example 71A] in this work.
An IC50 [1] of less than 5 nM and an IC50 [2] of less than 5 nM were found for `Cc1nc(F)ccc1Oc1cc(C(F)(F)F)c(Cl)cc1C(=O)Nc1ccnc(C(N)=O)c1` [Example 72A] in this work.
An IC50 [1] of less than 5 nM and an IC50 [2] of less than 5 nM were found for `Cc1nc(F)ccc1Oc1cc(C(F)(F)F)c(Cl)cc1C(=O)Nc1cccc(C(N)=O)c1` [Example 73A] in this work.
An IC50 [3] of less than 5 nM and an IC50 [4] of less than 5 nM were found for `Cc1nc(F)ccc1Oc1ncc(C(F)(F)F)c(C)c1C(=O)Nc1cccc([S@@](C)(=O)=NCC(C)(C)N)c1` [Example 90C] in this work.
An IC50 [3] of less than 5 nM and an IC50 [4] of less than 5 nM were found for `Cc1nc(F)ccc1Oc1ncc(C(F)(F)F)c(C)c1C(=O)Nc1cccc([S@@](C)(=O)=NCCN(C)C)c1` [Example 91C] in this work.
An IC50 [5] of less than 5 nM and an IC50 [6] of less than 5 nM were found for `Cc1nc(F)ccc1Oc1ncc(C(F)(F)F)c(C)c1C(=O)Nc1cccc(S(C)(=O)=NCC2(N)CC2)c1` (stereo not drawn) [Example 92C] in this work.
An IC50 [3] of 100 to 200 nM and an IC50 [4] of 100 to 200 nM were found for `Cc1nc(F)ccc1Oc1nc2ccccc2cc1C(=O)Nc1ccnc([S@](C)(=N)=O)c1` [Example 93C] in this work.
An IC50 [3] of 5 to 50 nM and an IC50 [4] of 5 to 50 nM were found for `Cc1nc(F)ccc1Oc1nc(C(F)(F)F)c(Cl)c(C)c1C(=O)Nc1ccc(F)c([S@@](C)(=N)=O)c1` [Example 94C] in this work.
An IC50 [3] of less than 5 nM and an IC50 [4] of less than 5 nM were found for `Cc1nc(F)ccc1Oc1nc(C(F)(F)F)c(Cl)c(C)c1C(=O)Nc1ccc(F)c([S@](C)(=N)=O)c1` [Example 95C] in this work.
An IC50 [3] of less than 5 nM and an IC50 [4] of less than 5 nM were found for `Cc1nc(F)ccc1Oc1nc(C(F)(F)F)c(Br)c(C)c1C(=O)Nc1cccc([S@@](C)(=O)=NCCN)c1` [Example 96C] in this work.
An IC50 [3] of 50 to 100 nM and an IC50 [4] of 50 to 100 nM were found for `Cc1nc(F)ccc1Oc1nc2ccccc2cc1C(=O)Nc1cccc([S@](C)(=N)=O)c1` [Example 97C] in this work.
An IC50 [3] of 5 to 50 nM and an IC50 [4] of 5 to 50 nM were found for `Cc1nc(F)ccc1Oc1ncc(C2CCC2)c(C)c1C(=O)Nc1ccnc([S@](C)(=N)=O)c1` [Example 98C] in this work.
An IC50 [3] of 5 to 50 nM and an IC50 [4] of 5 to 50 nM were found for `Cc1nc(F)ccc1Oc1ncc(C2CCC2)c(C)c1C(=O)Nc1cccc([S@](C)(=N)=O)c1` [Example 99C] in this work.
An IC50 [3] of 5 to 50 nM and an IC50 [4] of 5 to 50 nM were found for `Cc1nc(F)ccc1Oc1nc(C(F)(F)F)c(Cl)c(C)c1C(=O)Nc1ccnc([S@](C)(=N)=O)c1` [Example 100C] in this work.
An IC50 [5] of 5 to 50 nM and an IC50 [6] of 5 to 50 nM were found for `Cc1nc(F)ccc1Oc1ncc(C(F)(F)F)c(C)c1C(=O)Nc1ccc(F)c(S(C)(=O)=O)c1` [Example 101C] in this work.
An IC50 [3] of 5 to 50 nM and an IC50 [4] of 5 to 50 nM were found for `Cc1nc(F)ccc1Oc1ncc(C(F)(F)F)c(C)c1C(=O)Nc1ccc(F)c([S+](C)[O-])c1` (stereo not drawn) [Example 102C] in this work.
An IC50 [3] of 50 to 100 nM and an IC50 [4] of 50 to 100 nM were found for `CCCc1cnc(Oc2ccc(F)nc2C)c(C(=O)Nc2cccc([S@](C)(=N)=O)c2)c1C` [Example 103C] in this work.
An IC50 [3] of 50 to 100 nM and an IC50 [4] of 50 to 100 nM were found for `Cc1nc(F)ccc1Oc1ncc(C(C)C)c(C)c1C(=O)Nc1cccc([S@](C)(=N)=O)c1` [Example 104C] in this work.
An IC50 [3] of less than 5 nM and an IC50 [4] of less than 5 nM were found for `Cc1nc(F)ccc1Oc1nc(C2CC2)c(C(F)(F)F)c(C)c1C(=O)Nc1ccnc([S@@](C)(=N)=O)c1` [Example 105C] in this work.
An IC50 [3] of less than 5 nM and an IC50 [4] of less than 5 nM were found for `Cc1nc(F)ccc1Oc1nc(C2CC2)c(C(F)(F)F)c(C)c1C(=O)Nc1ccnc([S@](C)(=N)=O)c1` [Example 106C] in this work.
An IC50 [5] of less than 5 nM and an IC50 [6] of less than 5 nM were found for `Cc1nc(F)ccc1Oc1nc(C2CC2)c(C(F)(F)F)c(C)c1C(=O)Nc1cccc([S@@](C)(=N)=O)c1` [Example 107C] in this work.
An IC50 (read-out: P1 (IC50, resting state block), P1 measurement, resting state block, holding potential −120 mV, third set of compounds) of less than 5 nM and an IC50 (read-out: P2 (IC50, inactivated state block), P2 measurement, inactivated state block, inactivation step −35 mV 10 sec, third set of compounds) of less than 5 nM were found for `Cc1nc(F)ccc1Oc1nc(C2CC2)c(C(F)(F)F)c(C)c1C(=O)Nc1cccc([S@](C)(=N)=O)c1` [Example 108C] in this work.
An IC50 [5] of less than 5 nM and an IC50 [6] of less than 5 nM were found for `CNCCN=[S@](C)(=O)c1cccc(NC(=O)c2c(Oc3ccc(F)nc3C)ncc(C(F)(F)F)c2C)c1` [Example 109C] in this work.
An IC50 [3] of 5 to 50 nM and an IC50 [4] of 5 to 50 nM were found for `Cc1nc(F)ccc1Oc1cnc(C(F)(F)F)c(F)c1C(=O)Nc1cccc([S@](C)(=N)=O)c1` [Example 110C] in this work.
An IC50 [3] greater than 200 nM and an IC50 [4] greater than 200 nM were found for `Cc1nc(F)ccc1Oc1ncc(C(F)(F)F)c(C)c1C(=O)Nc1ccc(C(N)=O)nc1` [Example 111C] in this work.
An IC50 [3] greater than 200 nM and an IC50 [4] greater than 200 nM were found for `Cc1nc(F)ccc1Oc1ncc(C(F)(F)F)c(C)c1C(=O)NC12CC(C(N)=O)(C1)C2` [Example 112C] in this work.
An IC50 [3] of 5 to 50 nM and an IC50 [4] of 5 to 50 nM were found for `Cc1nc(F)ccc1Oc1nc(C(F)(F)F)c(C#N)c(C)c1C(=O)Nc1cccc([S@](C)(=N)=O)c1` [Example 113C] in this work.
An IC50 [3] greater than 200 nM and an IC50 [4] greater than 200 nM were found for `Cc1nc(F)ccc1Oc1ncc(C(F)F)c(C)c1C(=O)Nc1ccnc([S@@](C)(=N)=O)c1` [Example 114C] in this work.
An IC50 [5] greater than 200 nM and an IC50 [6] greater than 200 nM were found for `Cc1nc(F)ccc1Oc1ncc(C(F)F)c(C)c1C(=O)Nc1ccnc([S@](C)(=N)=O)c1` [Example 115C] in this work.
An IC50 [3] of 5 to 50 nM and an IC50 [4] of 5 to 50 nM were found for `COc1ccc(Oc2ncc(C(F)(F)F)c(C)c2C(=O)Nc2cccc([S@@](C)(=N)=O)c2)c(C)n1` [Example 116C] in this work.
An IC50 [3] greater than 200 nM and an IC50 [4] greater than 200 nM were found for `Cc1nc(O)ccc1Oc1ncc(C(F)(F)F)c(C)c1C(=O)Nc1cccc([S@](C)(=N)=O)c1` [Example 117C] in this work.
An IC50 [3] of less than 5 nM and an IC50 [4] of less than 5 nM were found for `Cc1nc(F)ccc1Oc1ncc(C(F)(F)F)c(C)c1C(=O)Nc1ccc(C(N)=O)cc1` [Example 118C] in this work.
An IC50 [3] of less than 5 nM and an IC50 [4] of less than 5 nM were found for `Cc1nc(F)ccc1Oc1ncc(C(F)(F)F)c(C)c1C(=O)Nc1cccc(C(N)=O)c1` [Example 119C] in this work.
An IC50 [5] of 5 to 50 nM and an IC50 [6] of 5 to 50 nM were found for `Cc1nc(F)ccc1Oc1ncc(C(F)(F)F)c(C)c1C(=O)Nc1ccnc(C(N)=O)c1` [Example 120C] in this work.
An IC50 [3] of 50 to 100 nM and an IC50 [4] of 50 to 100 nM were found for `Cc1ccc(Oc2ncc(C(F)(F)F)c(C)c2C(=O)Nc2cccc([S@@](C)(=N)=O)c2)c(F)n1` [Example 121C] in this work.
An IC50 [3] of 5 to 50 nM and an IC50 [4] of 5 to 50 nM were found for `Cc1nc(F)ccc1Oc1ncc(I)c(C)c1C(=O)Nc1cccc([S@](C)(=N)=O)c1` [Example 122C] in this work.
An IC50 [3] of less than 5 nM and an IC50 [4] of less than 5 nM were found for `Cc1nc(F)ccc1Oc1ncc(C(F)(F)F)c(C)c1C(=O)Nc1cccc(S(C)(=O)=O)c1` [Example 123C] in this work.
An IC50 [3] of 5 to 50 nM and an IC50 [4] of 5 to 50 nM were found for `Cc1nc(F)ccc1Oc1ncc(-c2ccc(F)c(F)c2)c(C)c1C(=O)Nc1cccc(S(C)(=N)=N)c1` [Example 124C] in this work.
An IC50 [3] greater than 200 nM and an IC50 [4] greater than 200 nM were found for `COc1cc(C#N)ccc1Oc1ncc(-c2ccc(C(F)F)cc2)c(C)c1C(=O)Nc1ccnc(S(C)(=N)=O)c1` (stereo not drawn) [Example 125C] in this work.
